# Assay results taken from patent US5965407A, “Anthracycline compound 0624” (Higeta Shoyu Co. Ltd., priority 1997, dated 1999).
# Experiments:
# L1210 cell line = assay: Growth inhibition of L1210 cells (MTT assay); format: cell-based; settings: Mus musculus, L1210, 72 hours, 37° C.
# Procedure: (§1) Cell suspensions were prepared (at 5.6×10^6 cells/ml) by using RPMI 1640 medium for L1210 cell line, RPMI 1640 medium containing 20 μM 2-mercaptoethanol (all the media containing 10% bovine serum) for P388 cell line and an adriamycin resistant P388 cell line, Eagle's MEM medium for KB cell line, and α-MEM medium for CHO cell line.
# (§2) Test samples (0624-A and 0624-B) were individually dissolved in methanol and serially diluted with the individual media in a series of 2-fold dilution starting from a concentration of 0.1 mg/ml. The cell suspensions (each of 180 μl) and each test sample (20 μl) were divided in a 96-well microtiter plate, and subjected to culturing in wet atmosphere of 5% CO2 -95% air at 37° C. 72 hours after, cell growth was determined by the calorimetric assay using 3-(4, 5-dimethyl-z-thiazolyl)-2,5-diphenyl-2H-tetrazolium bromide (MTT). More specifically, 20 μl each of 2 mg/ml MTT solution was added into each well, followed by culturing at 37° C. for 4 hours. Then, 50 μl of 50 % dimethylformamide solution containing 20% sodium dodecyl sulfate was added to each well, which was left to stand. The resulting formed violet formazan crystal was solubilized and subjected to determination of absorbance at 570 nm, by using a microplate reader (Immunoreader), which was used as the indicator of growth. […]
# P388 cell line = assay: Growth inhibition of P388 cells (MTT assay); format: cell-based; settings: Mus musculus, P388, 72 hours, 37° C.
# Procedure: as §1, §2
# [1] = test system: Adriamycin resistant P388 cell line; assay: Growth inhibition of adriamycin resistant P388 cells (MTT assay); format: cell-based; settings: Mus musculus, Adriamycin resistant P388, 72 hours, 37° C.
# Procedure: as §1, §2
# KB cell line = assay: Growth inhibition of KB cells (MTT assay); format: cell-based; settings: Homo sapiens, 72 hours, 37° C.
# Procedure: as §1, §2
# CHO cell line = assay: Growth inhibition of CHO cells (MTT assay); format: cell-based; settings: Cricetulus griseus, 72 hours, 37° C.
# Procedure: as §1, §2
# [2] = test system: cell lines L1210, P388, adriamycin resistant P388, KB and CHO; assay: Growth inhibition of the tumor cell line panel (MTT assay), summary in words; format: cell-based
# Procedure: as §1, §2
# [3] = test system: Micrococcus luteus IFM2066; assay: Antimicrobial activity (MIC), Micrococcus luteus; format: cell-based; settings: Micrococcus luteus IFM2066, Muller-Hinton broth, 24 hours, 37° C.
# Procedure: (§3) The antimicrobial activity of compound 0624 was confirmed through the assaying of the minimum growth inhibitory concentration (MIC).
# (§4) The MICs of compound 0624 against various bacteria were determined in a Muller-Hinton broth (BBL) containing 0.2% glucose, according to the standard defined by the Japan Chemotherapy Association (The Essentials of Antibiotics, the 4-th edition, Tokyo University Press, 1992).
# (§5) The test bacteria were adjusted to 1×10^8 cfu/ml in the broth, and then used as test bacteria solutions.
# (§6) The test samples (compounds 0624-A and 0624-B) were, separately, dissolved in methanol and were then serially diluted with the broth in a series of 2-fold dilution, starting from a concentration of 0.1 mg/ml. Each test bacteria solution (180 μl) and each test sample (20 μl) were divided in a 96-well microtiter plate, and cultured at 37° C. After 24 hours, the MIC was observed and calculated by the eye, and the resulting MIC was defined as MIC value.
# [4] = test system: Staphylococcus aureus 209P; assay: Antimicrobial activity (MIC), Staphylococcus aureus; format: cell-based; settings: Muller-Hinton broth, 24 hours, 37° C.
# Procedure: as §3, §4, §5, §6
# Bacillus subtilis PC1189 = assay: Antimicrobial activity (MIC), Bacillus subtilis; format: cell-based; settings: Bacillus subtilis PC1189, Muller-Hinton broth, 24 hours, 37° C.
# Procedure: as §3, §4, §5, §6
# [5] = test system: Nocardia transvalensis IFM0333; assay: Antimicrobial activity (MIC), Nocardia transvalensis; format: cell-based; settings: Nocardia transvalensis IFM0333, Muller-Hinton broth, 24 hours, 37° C.
# Procedure: as §3, §4, §5, §6
# N. brasiliensis IFM0236 = assay: Antimicrobial activity (MIC), N. brasiliensis; format: cell-based; settings: N. brasiliensis IFM0236, Muller-Hinton broth, 24 hours, 37° C.
# Procedure: as §3, §4, §5, §6
# [6] = test system: N. otitidiscaviarum IFM0239; assay: Antimicrobial activity (MIC), N. otitidiscaviarum; format: cell-based; settings: N. otitidiscaviarum IFM0239, Muller-Hinton broth, 24 hours, 37° C.
# Procedure: as §3, §4, §5, §6
# N. nova IFM0290 = assay: Antimicrobial activity (MIC), N. nova; format: cell-based; settings: N. nova IFM0290, Muller-Hinton broth, 24 hours, 37° C.
# Procedure: as §3, §4, §5, §6
# N. asteroides IFM0319 = assay: Antimicrobial activity (MIC), N. asteroides; format: cell-based; settings: Nocardia asteroides; N. asteroides IFM0319, Muller-Hinton broth, 24 hours, 37° C.
# Procedure: as §3, §4, §5, §6
# N. farcinica IFM0284 = assay: Antimicrobial activity (MIC), N. farcinica; format: cell-based; settings: Nocardia farcinica; N. farcinica IFM0284, Muller-Hinton broth, 24 hours, 37° C.
# Procedure: as §3, §4, §5, §6
# [7] = test system: Mycobacterium smegmatis ATCC607; assay: Antimicrobial activity (MIC), Mycobacterium smegmatis; format: cell-based; settings: Mycolicibacterium smegmatis; Mycobacterium smegmatis ATCC607, Muller-Hinton broth, 24 hours, 37° C.
# Procedure: as §3, §4, §5, §6
# M. phlei ATCC11758 = assay: Antimicrobial activity (MIC), M. phlei; format: cell-based; settings: Mycolicibacterium phlei; M. phlei ATCC11758, Muller-Hinton broth, 24 hours, 37° C.
# Procedure: as §3, §4, §5, §6
# M. flavescens ATCC14474 = assay: Antimicrobial activity (MIC), M. flavescens; format: cell-based; settings: Mycolicibacterium flavescens; M. flavescens ATCC14474, Muller-Hinton broth, 24 hours, 37° C.
# Procedure: as §3, §4, §5, §6
# gram-positive bacteria = assay: Antimicrobial activity, summary in words; format: cell-based; settings: gram-positive bacteria of Table 6
# Procedure: as §3, §4, §5, §6
# Solubility = format: physicochemical
# [8] = in chloroform, ether and hexane
# [9] = in water, methanol, ethanol, DMSO and ethyl acetate
SMILES,IC50 (L1210 cell line) [µg/mL],IC50 (P388 cell line) [µg/mL],IC50 [1] [µg/mL],IC50 (KB cell line) [µg/mL],IC50 (CHO cell line) [µg/mL],growth inhibitory activities against the cell lines [2],MIC [3] [µg/mL],MIC [4] [µg/mL],MIC (Bacillus subtilis PC1189) [µg/mL],MIC [5] [µg/mL],MIC (N. brasiliensis IFM0236) [µg/mL],MIC [6] [µg/mL],MIC (N. nova IFM0290) [µg/mL],MIC (N. asteroides IFM0319) [µg/mL],MIC (N. farcinica IFM0284) [µg/mL],MIC [7] [µg/mL],MIC (M. phlei ATCC11758) [µg/mL],MIC (M. flavescens ATCC14474) [µg/mL],antimicrobial activity against gram-positive bacteria (gram-positive bacteria),Solubility (Solubility; [8]),also measured
COc1ccc(O)c2c1C(=O)c1cc3c(c(O)c1C2=O)C(OC1CC(C)(N(C)C)C(OC(C)=O)C(C)O1)C(OC)C(C)(O)C3=O (stereo not drawn) [Compound 0624-B],0.18,0.59,1.05,1.32,18.6,have the growth inhibitory activities,12.5,100,3.13,6.25,> 100,> 100,1.56,3.13,12.5,3.13,3.13,12.5,wide spectrum of antimicrobial activity,Insoluble,Solubility (Solubility; [9]): Soluble
COc1ccc(O)c2c1C(=O)c1cc3c(c(O)c1C2=O)C(OC1CC(C)(N(C)C)C(O)C(C)O1)C(OC)C(C)(O)C3=O (stereo not drawn) [Compound 0624-A],0.15,0.47,0.97,1.06,12.3,have the growth inhibitory activities,1.56,3.13,6.25,3.13,6.25,1.56,0.78,1.56,3.13,1.56,0.78,3.13,wide spectrum of antimicrobial activity,Insoluble,Solubility (Solubility; [9]): Soluble
